Experimental data taken from ChEMBL document CHEMBL4196011, “The lead optimization of the polyamine conjugate of flavonoid with a naphthalene motif: Synthesis and biological evaluation” (Eur J Med Chem, 2018).

Columns and labels:
HCT-116 = assay: Antiproliferative activity against human HCT116 cells after 48 hrs by MTT assay; assay type: functional, cell-based; details: HCT-116, 48 h
HT-29 = assay: Antiproliferative activity against human HT-29 cells after 48 hrs by MTT assay; assay type: functional, cell-based; details: HT-29, 48 h
HeLa = assay: Antiproliferative activity against human HeLa cells after 48 hrs by MTT assay; assay type: functional, cell-based
K562 = assay: Antiproliferative activity against human K562 cells after 48 hrs by MTT assay; assay type: functional, cell-based; details: K562, 48 h
HepG2 = assay: Antiproliferative activity against human HepG2 cells after 48 hrs by MTT assay; assay type: functional, cell-based; details: HepG2, 48 h
H22 [1] = assay: Antitumor activity against […] xenografted in Kunming mouse assessed as tumor growth inhibition at 10 mg/kg, iv for 7 consecutive days measured on day 16; assay type: functional; details: 384 h, read-out: TGI
[2] = Toxicity in iv dosed Kunming mouse assessed as maximum tolerated dose administered for 7 consecutive days; assay type: organism-based; details: in vivo
Mus musculus [3] = assay: Toxicity in Kunming mouse xenografted with […] H22 cells assessed as effect on liver weight index at 100 mg/kg, ig administered for 7 consecutive days; assay type: organism-based; details: in vivo, po
H22 [4] = assay: Antitumor activity against […] xenografted in Kunming mouse assessed as tumor growth inhibition at 100 mg/kg, ig for 7 consecutive days measured on day 16; assay type: functional; details: H22, po, 384 h, read-out: TGI
Mus musculus [5] = assay: Toxicity in Kunming mouse xenografted with […] H22 cells assessed as effect on body weight at 100 mg/kg, ig administered for 7 consecutive days; assay type: organism-based; details: in vivo, po
Mus musculus [6] = assay: Toxicity in Kunming mouse xenografted with […] H22 cells assessed as effect on heart weight index at 100 mg/kg, ig administered for 7 consecutive days; assay type: organism-based; details: in vivo, po
Mus musculus [7] = assay: Toxicity in Kunming mouse xenografted with […] H22 cells assessed as effect on spleen weight index at 100 mg/kg, ig administered for 7 consecutive days; assay type: organism-based; details: in vivo, po
Mus musculus [8] = assay: Toxicity in Kunming mouse xenografted with […] H22 cells assessed as effect on lung weight index at 100 mg/kg, ig administered for 7 consecutive days; assay type: organism-based; details: in vivo, po
Mus musculus [9] = assay: Toxicity in Kunming mouse xenografted with […] H22 cells assessed as effect on kidney weight index at 100 mg/kg, ig administered for 7 consecutive days; assay type: organism-based; details: in vivo, po
[10] = Toxicity in Kunming mouse assessed as maximum tolerated dose administered for 7 consecutive days; assay type: organism-based; details: in vivo

| SMILES | IC50 (HCT-116) [µM] | IC50 (HT-29) [µM] | IC50 (HeLa) [µM] | IC50 (K562) [µM] | IC50 (HepG2) [µM] | other results |
| --- | --- | --- | --- | --- | --- | --- |
| COc1ccc2cc(-c3oc4c(CNCCCN)cccc4c(=O)c3OC)ccc2c1Br | 12.8 | 23.1 | 11.2 | 19.2 | 15.1 |  |
| COc1ccc2cc(-c3oc4c(CNCCCCNCCCCN)cccc4c(=O)c3OC)ccc2c1Br | 19.3 | 21.8 | 9.63 | 18.5 | 14.3 |  |
| COc1c(-c2ccc(-c3ccccc3)cc2)oc2c(CNCCCN)cccc2c1=O.Cl.Cl | 5.1 | 8.25 | 7.8 | 9.3 | 10.4 | inhibition in vivo at 10 mg/kg (H22 [1]): 31.5%; MTD at 7 days [2]: 15 mg/kg |
| COc1c(-c2ccc(-c3ccccc3)cc2)oc2c(CNCCCNCCCCN)cccc2c1=O | 14.8 | 31.4 | 13.9 | 15.8 | 22.2 |  |
| O=C1c2c(O)ccc(O)c2C(=O)c2c(NCCNCCO)ccc(NCCNCCO)c21 [MITOXANTRONE] | 1.61 | 21.7 | 2.35 | 4.55 | 18.6 |  |
| COc1c(-c2ccc(-c3ccccc3)cc2)oc2c(CNCCCCN)cccc2c1=O | 16.4 | 16.1 | 10.3 | 24.4 | 16.2 |  |
| O=c1c(O)c(-c2ccc(O)c(O)c2)oc2cc(O)cc(O)c12 [QUERCETIN] |  |  |  |  |  | Activity (Mus musculus [3]): Non-Toxic; inhibition in vivo at 100 mg/kg (H22 [4]): 34.3 to 38.7%; Activity (Mus musculus [5]): Non-Toxic; Activity (Mus musculus [6]): Non-Toxic; Activity (Mus musculus [7]): Non-Toxic; Activity (Mus musculus [8]): Non-Toxic; Activity (Mus musculus [9]): Non-Toxic |
| NCCCNCc1c(-c2ccc(-c3ccccc3)cc2)oc2ccccc2c1=O | 23.4 | 24.7 | 20.5 | 41.6 | > 50 |  |
| COc1c(-c2ccc(-c3ccccc3)cc2)oc2c(CNCCN)cccc2c1=O | 24.1 | 18.9 | 18.7 | 25.9 | 19.9 |  |
| Cl.Cl.NCCCNCC(=O)NCc1cccc2c(=O)cc(-c3cccc4ccccc34)oc12 |  |  |  |  |  | MTD at 7 days [10]: 20 mg/kg |
| COc1c(-c2ccc(-c3ccccc3)cc2)oc2c(CNCCCCNCCCCN)cccc2c1=O | 20.1 | 25.6 | 18.6 | 19.8 | 24.4 |  |
